Assay results published in BindingDB's records for doi:10.1016/j.bmcl.2010.08.118 (Roche Palo Alto, 2010).
pIC50: −log10 of the molar value.

Assay: Inhibition of CCR5 by cell-cell fusion inhibition assay

pIC50	Structure (SMILES)
5.55	Cc1ncnc(C)c1C(=O)N1C[C@H]2CN(CCC(c3ccccc3)C3CN(C(=O)C4CCCC4)C3)C[C@H]2C1 (stereo partly drawn) [((3aR,6aS)-5-(3-(1-(cyclopentanecarbonyl)azetidin-3-yl)-3-phenylpropyl)hexahydropyrrolo[3,4-c]pyrrol-2(1H)-yl)(4,6-dimethylpyrimidin-5-yl)methanone]
7.03	Cc1ncnc(C)c1C(=O)N1C[C@H]2CN(CCC(c3ccccc3)C3CN(S(=O)(=O)C(C)C)C3)C[C@H]2C1 (stereo partly drawn) [(4,6-dimethylpyrimidin-5-yl)((3aR,6aS)-5-(3-(1-(isopropylsulfonyl)azetidin-3-yl)-3-phenylpropyl)hexahydropyrrolo[3,4-c]pyrrol-2(1H)-yl)methanone]
7.00	Cc1ncnc(C)c1C(=O)N1C[C@H]2CN(CCC(c3ccccc3)C3CCN(S(=O)(=O)C(C)C)CC3)C[C@H]2C1 (stereo partly drawn) [(4,6-dimethylpyrimidin-5-yl)((3aR,6aS)-5-(3-(1-(isopropylsulfonyl)piperidin-4-yl)-3-phenylpropyl)hexahydropyrrolo[3,4-c]pyrrol-2(1H)-yl)methanone]
6.13	COC(=O)N1CCC(C(CCN2C[C@@H]3CN(C(=O)c4c(C)ncnc4C)C[C@@H]3C2)c2ccccc2)CC1 (stereo partly drawn) [methyl 4-(3-((3aR,6aS)-5-(4,6-dimethylpyrimidine-5-carbonyl)hexahydropyrrolo[3,4-c]pyrrol-2(1H)-yl)-1-phenylpropyl)piperidine-1-carboxylate]
7.20	Cc1ncnc(C)c1C(=O)N1C[C@H]2CN(CCC(c3cc(F)cc(F)c3)C3CN(S(=O)(=O)C4CC4)C3)C[C@H]2C1 (stereo partly drawn) [((3aR,6aS)-5-(3-(1-(cyclopropylsulfonyl)azetidin-3-yl)-3-(3,5-difluorophenyl)propyl)hexahydropyrrolo[3,4-c]pyrrol-2(1H)-yl)(4,6-dimethylpyrimidin-5-yl)methanone]
7.96	Cc1ncnc(C)c1C(=O)N1C[C@H]2CN(CCC(c3cccc(F)c3)C3CCN(CC(F)F)CC3)C[C@H]2C1 (stereo partly drawn) [((3aR,6aS)-5-(3-(1-(2,2-difluoroethyl)piperidin-4-yl)-3-(3-fluorophenyl)propyl)hexahydropyrrolo[3,4-c]pyrrol-2(1H)-yl)(4,6-dimethylpyrimidin-5-yl)methanone]
5.55	Cc1ncnc(C)c1C(=O)N1C[C@H]2CN(CCC(c3ccccc3)C3CCN(C(=O)CC(C)C)CC3)C[C@H]2C1 (stereo partly drawn) [1-(4-(3-((3aR,6aS)-5-(4,6-dimethylpyrimidine-5-carbonyl)hexahydropyrrolo[3,4-c]pyrrol-2(1H)-yl)-1-phenylpropyl)piperidin-1-yl)-3-methylbutan-1-one]
8.10	Cc1cc(=O)oc(C)c1C(=O)N1C[C@H]2CN(CCC(c3ccccc3)C3CCN(S(C)(=O)=O)CC3)C[C@H]2C1 (stereo partly drawn) [4,6-dimethyl-5-((3aR,6aS)-5-(3-(1-(methylsulfonyl)piperidin-4-yl)-3-phenylpropyl)octahydropyrrolo[3,4-c]pyrrole-2-carbonyl)-2H-pyran-2-one]
6.86	Cc1ncnc(C)c1C(=O)N1C[C@H]2CN(CCC(c3ccccc3)C3CCN(CC(F)F)CC3)C[C@H]2C1 (stereo partly drawn) [((3aR,6aS)-5-(3-(1-(2,2-difluoroethyl)piperidin-4-yl)-3-phenylpropyl)hexahydropyrrolo[3,4-c]pyrrol-2(1H)-yl)(4,6-dimethylpyrimidin-5-yl)methanone]
< 5.30	Cc1ncnc(C)c1C(=O)N1C[C@H]2CN(CCC(c3ccccc3)C3CCN(C(=O)C(C)C)CC3)C[C@H]2C1 (stereo partly drawn) [1-(4-(3-((3aR,6aS)-5-(4,6-dimethylpyrimidine-5-carbonyl)hexahydropyrrolo[3,4-c]pyrrol-2(1H)-yl)-1-phenylpropyl)piperidin-1-yl)-2-methylpropan-1-one]
7.47	Cc1ncnc(C)c1C(=O)N1C[C@H]2CN(CCC(c3ccccc3)C3CCN(CC(F)(F)F)CC3)C[C@H]2C1 (stereo partly drawn) [(4,6-dimethylpyrimidin-5-yl)((3aR,6aS)-5-(3-phenyl-3-(1-(2,2,2-trifluoroethyl)piperidin-4-yl)propyl)hexahydropyrrolo[3,4-c]pyrrol-2(1H)-yl)methanone]
< 5.30	Cc1ncnc(C)c1C(=O)N1C[C@H]2CN(CCC(c3ccccc3)C3CN(C(=O)CC(C)C)C3)C[C@H]2C1 (stereo partly drawn) [1-(3-(3-((3aR,6aS)-5-(4,6-dimethylpyrimidine-5-carbonyl)hexahydropyrrolo[3,4-c]pyrrol-2(1H)-yl)-1-phenylpropyl)azetidin-1-yl)-3-methylbutan-1-one]
7.52	Cc1ncnc(C)c1C(=O)N1C[C@H]2CN(CCC(c3cccc(F)c3)C3CN(S(=O)(=O)C4CC4)C3)C[C@H]2C1 (stereo partly drawn) [((3aR,6aS)-5-(3-(1-(cyclopropylsulfonyl)azetidin-3-yl)-3-(3-fluorophenyl)propyl)hexahydropyrrolo[3,4-c]pyrrol-2(1H)-yl)(4,6-dimethylpyrimidin-5-yl)methanone]
< 5.30	Cc1ncnc(C)c1C(=O)N1C[C@H]2CN(CCC(c3ccccc3)C3CCN(C(=O)NC(C)C)CC3)C[C@H]2C1 (stereo partly drawn) [4-(3-((3aR,6aS)-5-(4,6-dimethylpyrimidine-5-carbonyl)hexahydropyrrolo[3,4-c]pyrrol-2(1H)-yl)-1-phenylpropyl)-N-isopropylpiperidine-1-carboxamide]
< 5.30	Cc1ncnc(C)c1C(=O)N1C[C@H]2CN(CCC(c3ccccc3)C3CN(CC(F)(F)F)C3)C[C@H]2C1 (stereo partly drawn) [(4,6-dimethylpyrimidin-5-yl)((3aR,6aS)-5-(3-phenyl-3-(1-(2,2,2-trifluoroethyl)azetidin-3-yl)propyl)hexahydropyrrolo[3,4-c]pyrrol-2(1H)-yl)methanone]
6.50	Cc1ncnc(C)c1C(=O)N1C[C@H]2CN(CCC(c3ccccc3)C3CN(S(=O)(=O)C4CC4)C3)C[C@H]2C1 (stereo partly drawn) [((3aR,6aS)-5-(3-(1-(cyclopropylsulfonyl)azetidin-3-yl)-3-phenylpropyl)hexahydropyrrolo[3,4-c]pyrrol-2(1H)-yl)(4,6-dimethylpyrimidin-5-yl)methanone]
< 5.30	CCC(=O)N1CCC(C(CCN2C[C@@H]3CN(C(=O)c4c(C)ncnc4C)C[C@@H]3C2)c2ccccc2)CC1 (stereo partly drawn) [1-(4-(3-((3aR,6aS)-5-(4,6-dimethylpyrimidine-5-carbonyl)hexahydropyrrolo[3,4-c]pyrrol-2(1H)-yl)-1-phenylpropyl)piperidin-1-yl)propan-1-one]
